Laboratory results from US20240409585A1, “MACROCYCLIC IMMUNOMODULATORS” (priority 2021, published 2024).
Bridge positions count the residues as written; N and C are the ends. Square brackets hold non-standard residues; d marks the D form. Peptide text beside a SMILES is read from it. * marks the point of attachment. ξ: configuration not given here. Phe(4-COOH) = N[C@@H](Cc1ccc(C(=O)O)cc1)C(=O)O; Bip = N[C@@H](Cc1ccc(-c2ccccc2)cc1)C(=O)O; dPhe(4-NH2) = Nc1ccc(C[C@@H](N)C(=O)O)cc1; Phe(3-OMe) = COc1cccc(C[C@H](N)C(=O)O)c1; Phe(3-Me) = Cc1cccc(C[C@H](N)C(=O)O)c1; Phe(4-F) = N[C@@H](Cc1ccc(F)cc1)C(=O)O; Val(3-OH) = CC(C)(O)[C@H](N)C(=O)O; Cha = N[C@@H](CC1CCCCC1)C(=O)O; Thr(3ξ) = CC(O)[C@H](N)C(=O)O; Pip = O=C(O)[C@@H]1CCCCN1; Carboxymethyl = O=C(O)C*; NMeA = CN[C@@H](C)C(=O)O; Orn = NCCC[C@H](N)C(=O)O; Pra = C#CC[C@H](N)C(=O)O; Dab = NCC[C@H](N)C(=O)O; Dap = NC[C@H](N)C(=O)O

Target: T1, PE-labeled human PD-L1-Ig binding to Jurkat cell line over-expressing human PD-1 (Jurkat-PD-1) (Homo sapiens, UniProt Q15116)
T1 construct: expressed in transfected cells; host or cells: Jurkat
Experiment: Jurkat-PD-1 Cell Binding High-Content Screening Assay (CBA): Method 1
Conditions: Jurkat-hPD-1 cells, PE-labeled PD-L1-Ig 20 nM final; read-out: Jurkat HPDL1 PD1 IC50 (uM) (Method 1)

T1 sequence (Q15116 25-288): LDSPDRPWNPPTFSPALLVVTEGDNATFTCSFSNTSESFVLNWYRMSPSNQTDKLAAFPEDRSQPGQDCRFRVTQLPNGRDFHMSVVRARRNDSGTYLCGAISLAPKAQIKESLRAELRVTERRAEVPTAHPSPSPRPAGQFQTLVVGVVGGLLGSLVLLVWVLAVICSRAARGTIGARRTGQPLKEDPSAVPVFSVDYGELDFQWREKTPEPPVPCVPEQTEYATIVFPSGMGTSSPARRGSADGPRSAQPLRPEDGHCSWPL

| Compound | IC50 [µM] |
| --- | --- |
| CC(C)C[C@@H]1NC(=O)[C@H](Cc2c[nH]c3ccccc23)NC(=O)[C@H](CC(=O)O)NC(=O)[C@H](Cc2ccc(O)cc2)NC(=O)[C@H](Cc2ccccc2)NC(=O)CSC[C@@H](C(=O)NCC(N)=O)NC(=O)[C@H](CO)NC(=O)[C@H](C(C)C)NC(=O)[C@H](CC(C)C)NC(=O)[C@H](CC(N)=O)NC(=O)[C@H](CCC(N)=O)NC(=O)[C@H](C)N(C)C(=O)[C@H](C(C)C)NC(=O)[C@H](Cc2ccc(-c3ccccc3)cc2)NC1=O [Compound 1811] ({CH2CO}-FYDWL[Bip]V[NMeA]QNLVSCG-NH2; thioether N-14) | 0.28 |
| CC(C)C[C@@H]1NC(=O)[C@H](Cc2c[nH]c3ccccc23)NC(=O)[C@H](CC(=O)O)NC(=O)[C@H](Cc2ccc(O)cc2)NC(=O)[C@H](Cc2ccccc2)NC(=O)CSC[C@@H](C(=O)N[C@@H](C)C(N)=O)NC(=O)[C@H](CO)NC(=O)[C@H](C(C)C)NC(=O)[C@H](CC(C)C)NC(=O)[C@H](CC(N)=O)NC(=O)[C@@H](CC(C)C)NC(=O)[C@H](C)N(C)C(=O)[C@H](C(C)C)NC(=O)[C@H](Cc2ccc(-c3ccccc3)cc2)NC1=O [Compound 1745] ({CH2CO}-FYDWL[Bip]V[NMeA][dL]NLVSCA-NH2; thioether N-14) | 0.02 |
| CC(C)C[C@@H]1NC(=O)[C@H](CCN)NC(=O)[C@@H](CC(C)C)NC(=O)[C@H](C)N(C)C(=O)[C@H](CCCNC(=N)N)NC(=O)[C@H](Cc2ccc(-c3ccccc3)cc2)NC(=O)[C@H](C(C)C)NC(=O)[C@H](Cc2c[nH]c3ccccc23)NC(=O)[C@H](CC(=O)O)NC(=O)[C@H](Cc2cnc[nH]2)NC(=O)[C@H](Cc2cnc[nH]2)NC(=O)CSC[C@@H](C(=O)N[C@@H](C)C(N)=O)NC(=O)[C@H]([C@@H](C)O)NC(=O)[C@H](C(C)C)NC1=O [Compound 1142] ({CH2CO}-HHDWV[Bip]R[NMeA][dL][Dab]LVTCA-NH2; thioether N-14) | 0.24 |
| CC(C)C[C@@H]1NC(=O)[C@H](Cc2c[nH]c3ccccc23)NC(=O)[C@H](CC(=O)O)NC(=O)[C@H](Cc2ccc(O)cc2)NC(=O)[C@H](Cc2ccccc2)NC(=O)CSC[C@@H](C(=O)NCC(N)=O)NC(=O)[C@H]([C@@H](C)O)NC(=O)[C@H](C(C)C)NC(=O)[C@H](CC(C)C)NC(=O)[C@H](CC(N)=O)NC(=O)[C@@H](CC(C)C)NC(=O)[C@H](C)N(C)C(=O)[C@H](C(C)C)NC(=O)[C@H](Cc2ccc(-c3ccccc3)cc2)NC1=O [Compound 1466] ({CH2CO}-FYDWL[Bip]V[NMeA][dL]NLVTCG-NH2; thioether N-14) | 0.02 |
| Cc1cccc(C[C@@H]2NC(=O)[C@H](CC(=O)O)NC(=O)[C@H](Cc3ccc(OCC(=O)O)cc3)NC(=O)[C@H](CN)NC(=O)CSC[C@@H](C(N)=O)NC(=O)[C@H](CCCN)NC(=O)[C@H](C(C)C)NC(=O)[C@H](CC3CCCCC3)NC(=O)[C@H](CCN)NC(=O)[C@@H](CC(C)C)NC(=O)[C@@H]3CCCCN3C(=O)[C@H](Cc3ccc(OCC(=O)O)cc3)NC(=O)[C@H](Cc3ccc(-c4ccccc4)cc3)NC(=O)[C@H](Cc3ccc(OCC(=O)O)cc3)NC2=O)c1 [Compound 1890] ({CH2CO}-[Dap]Y(Carboxymethyl)D[Phe(3-Me)]Y(Carboxymethyl)[Bip]Y(Carboxymethyl)[Pip][dL][Dab][Cha]V[Orn]C-NH2; thioether N-14) | 0.15 |
| CC(C)C[C@@H]1NC(=O)[C@H](CCN)NC(=O)[C@@H](CC(C)C)NC(=O)[C@H](C)N(C)C(=O)[C@H](CCC(=O)O)NC(=O)[C@H](Cc2ccc(-c3ccccc3)cc2)NC(=O)[C@H](C(C)C)NC(=O)[C@H](Cc2c[nH]c3ccccc23)NC(=O)[C@H](CC(=O)O)NC(=O)[C@H](Cc2ccc(O)cc2)NC(=O)[C@H](Cc2ccccc2)NC(=O)CSC[C@@H](C(=O)N[C@@H](CCC(=O)O)C(N)=O)NC(=O)[C@H]([C@@H](C)O)NC(=O)[C@H](C(C)C)NC1=O [Compound 1164] ({CH2CO}-FYDWV[Bip]E[NMeA][dL][Dab]LVTCE-NH2; thioether N-14) | 0.07 |
| Cc1cccc(C[C@@H]2NC(=O)[C@H](CC(=O)O)NC(=O)[C@H](Cc3ccc(C(=O)O)cc3)NC(=O)[C@H](C(C)O)NC(=O)CSC[C@@H](C(=O)N[C@H](C(N)=O)C(C)(C)O)NC(=O)[C@H](CO)NC(=O)[C@H](C(C)(C)O)NC(=O)[C@H](CC3CCCCC3)NC(=O)[C@H](CCN)NC(=O)[C@@H](CC(C)C)NC(=O)[C@H](C)N(C)C(=O)[C@H](Cc3ccc(OCC(=O)O)cc3)NC(=O)[C@H](Cc3ccc(-c4ccccc4)cc3)NC(=O)[C@H](Cc3ccc(OCC(=O)O)cc3)NC2=O)c1 (stereo partly drawn) [Compound 2202] ({CH2CO}-[Thr(3ξ)][Phe(4-COOH)]D[Phe(3-Me)]Y(Carboxymethyl)[Bip]Y(Carboxymethyl)[NMeA][dL][Dab][Cha][Val(3-OH)]SC[Val(3-OH)]-NH2; thioether N-14) | 0.5 |
| C#CC[C@H](NC(=O)[C@@H](C)NC(=O)[C@@H]1CSCC(=O)N[C@@H](Cc2c[nH]cn2)C(=O)N[C@@H](Cc2ccc(OCC(=O)O)cc2)C(=O)N[C@@H](CC(=O)O)C(=O)N[C@@H](Cc2c[nH]c3ccccc23)C(=O)N[C@@H](C(C)C)C(=O)N[C@@H](Cc2ccc(-c3ccccc3)cc2)C(=O)N[C@@H](C(C)C)C(=O)N(C)[C@@H](C)C(=O)N[C@H](CC(C)C)C(=O)N[C@@H](CCN)C(=O)N[C@@H](CC2CCCCC2)C(=O)N[C@@H](C(C)(C)O)C(=O)N[C@@H](CO)C(=O)N1)C(N)=O [Compound 1942] ({CH2CO}-HY(Carboxymethyl)DWV[Bip]V[NMeA][dL][Dab][Cha][Val(3-OH)]SC[dA][Pra]-NH2; thioether N-14) | 0.01 |
| CC(C)C[C@@H]1NC(=O)[C@H](Cc2c[nH]c3ccccc23)NC(=O)[C@H](CC(=O)O)NC(=O)[C@H](Cc2ccc(O)cc2)NC(=O)[C@H](Cc2ccccc2)NC(=O)CSC[C@@H](C(=O)NCC(N)=O)NC(=O)[C@H](CO)NC(=O)[C@H](C(C)C)NC(=O)[C@H](CC(C)C)NC(=O)[C@H](CC(N)=O)NC(=O)CNC(=O)[C@H](C)N(C)C(=O)[C@H](C(C)C)NC(=O)[C@H](Cc2ccc(-c3ccccc3)cc2)NC1=O [Compound 1757] ({CH2CO}-FYDWL[Bip]V[NMeA]GNLVSCG-NH2; thioether N-14) | 0.03 |
| CC(C)C[C@@H]1NC(=O)[C@H](CCN)NC(=O)[C@@H](CC(C)C)NC(=O)[C@H](C)N(C)C(=O)[C@H](CCCNC(=N)N)NC(=O)[C@H](Cc2ccc(-c3ccccc3)cc2)NC(=O)[C@H](C(C)C)NC(=O)[C@H](Cc2c[nH]c3ccccc23)NC(=O)[C@H](CC(=O)O)NC(=O)[C@H](Cc2ccc(O)cc2)NC(=O)[C@H](Cc2ccccc2)NC(=O)CSC[C@@H](C(=O)N[C@@H](C)C(N)=O)NC(=O)[C@H]([C@@H](C)O)NC(=O)[C@H](C(C)C)NC1=O [Compound 1052] ({CH2CO}-FYDWV[Bip]R[NMeA][dL][Dab]LVTCA-NH2; thioether N-14) | 0.04 |
| CC(C)C[C@H]1NC(=O)[C@H](C)N(C)C(=O)[C@H](C(C)C)NC(=O)[C@H](Cc2ccc(-c3ccccc3)cc2)NC(=O)[C@H](C(C)C)NC(=O)[C@H](Cc2c[nH]c3ccccc23)NC(=O)[C@H](CC(=O)O)NC(=O)[C@H](Cc2ccc(O)cc2)NC(=O)[C@H](Cc2ccccc2)NC(=O)CSC[C@@H](C(=O)N[C@@H](C)C(N)=O)NC(=O)[C@H]([C@@H](C)O)NC(=O)[C@H](C(C)C)NC(=O)[C@H](CC2CCCCC2)NC(=O)[C@H](CCCNC(=N)N)NC1=O [Compound 1487] ({CH2CO}-FYDWV[Bip]V[NMeA][dL]R[Cha]VTCA-NH2; thioether N-14) | 0.32 |
| CC(C)C[C@@H]1NC(=O)[C@H](CCCNC(=N)N)NC(=O)[C@@H](Cc2ccc(N)cc2)NC(=O)[C@H](C)N(C)C(=O)[C@H](CCCNC(=N)N)NC(=O)[C@H](Cc2ccc(-c3ccccc3)cc2)NC(=O)[C@H](C(C)C)NC(=O)[C@H](Cc2c[nH]c3ccccc23)NC(=O)[C@H](CC(=O)O)NC(=O)[C@H](Cc2ccc(O)cc2)NC(=O)[C@H](Cc2ccccc2)NC(=O)CSC[C@@H](C(=O)N[C@@H](C)C(N)=O)NC(=O)[C@H]([C@@H](C)O)NC(=O)[C@H](C(C)C)NC1=O [Compound 1087] ({CH2CO}-FYDWV[Bip]R[NMeA][dPhe(4-NH2)]RLVTCA-NH2; thioether N-14) | 0.33 |
| CC(C)C[C@@H]1NC(=O)[C@H](CCCNC(=N)N)NC(=O)[C@@H](CC(C)C)NC(=O)[C@H](C)N(C)C(=O)[C@H](CCCNC(=N)N)NC(=O)[C@H](Cc2ccc(-c3ccccc3)cc2)NC(=O)[C@H](C(C)C)NC(=O)[C@H](Cc2c[nH]c3ccccc23)NC(=O)[C@H](CC(=O)O)NC(=O)[C@H](Cc2ccc(F)cc2)NC(=O)[C@H](Cc2ccccc2)NC(=O)CSC[C@@H](C(=O)N[C@@H](C)C(N)=O)NC(=O)[C@H]([C@@H](C)O)NC(=O)[C@H](C(C)C)NC1=O [Compound 1080] ({CH2CO}-F[Phe(4-F)]DWV[Bip]R[NMeA][dL]RLVTCA-NH2; thioether N-14) | 0.14 |
| CC(C)C[C@@H]1NC(=O)[C@H](CCN)NC(=O)[C@@H](CC(C)C)NC(=O)[C@H](C)N(C)C(=O)[C@H](CC(=O)O)NC(=O)[C@H](Cc2ccc(-c3ccccc3)cc2)NC(=O)[C@H](C(C)C)NC(=O)[C@H](Cc2c[nH]c3ccccc23)NC(=O)[C@H](CC(=O)O)NC(=O)[C@H](Cc2ccc(O)cc2)NC(=O)[C@H](CC(N)=O)NC(=O)CSC[C@@H](C(=O)N[C@@H](C)C(N)=O)NC(=O)[C@H]([C@@H](C)O)NC(=O)[C@H](C(C)C)NC1=O [Compound 1260] ({CH2CO}-NYDWV[Bip]D[NMeA][dL][Dab]LVTCA-NH2; thioether N-14) | 0.17 |
| COc1cccc(C[C@@H]2NC(=O)[C@H](CC(=O)O)NC(=O)[C@H](Cc3cccc(C)c3)NC(=O)[C@H](CN)NC(=O)CSC[C@@H](C(=O)N[C@@H](C)C(N)=O)NC(=O)[C@@H](CO)NC(=O)[C@H](C(C)C)NC(=O)[C@H](CC(C)C)NC(=O)[C@H](CC(N)=O)NC(=O)[C@@H](C)NC(=O)[C@H](C)N(C)C(=O)[C@H](C(C)C)NC(=O)[C@H](Cc3ccc(-c4ccccc4)cc3)NC(=O)[C@@H](CC(C)C)NC2=O)c1 [Compound 1464] ({CH2CO}-[Dap][Phe(3-Me)]D[Phe(3-OMe)][dL][Bip]V[NMeA][dA]NLV[dS]CA-NH2; thioether N-14) | 0.01 |
